Data from ChEMBL document CHEMBL1201862, “PubChem BioAssay data set” (2004).
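Tested at 5 concentrations; 48 h exposure; 96-well plates; endpoints linearly interpolated, else capped at highest concentration. GI50: concentration for 50% inhibition of growth.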 Active and inactive are the calls of the source. No stated cut-off is given here; in the data, active = GI50 up to about 1.1 µM and inactive = higher.

Columns and labels:
Test in all cases: DTP human tumour cell line panel, 48 h
[1] = test system: 786-0
[2] = test system: COLO 205
[3] = test system: HCC 2998
[4] = test system: HCT-116
[5] = test system: K562
[6] = test system: MCF7
[7] = test system: MDA-MB-435
[8] = test system: MDA-N
[9] = test system: Malme-3M
[10] = test system: NCI-H460
[11] = test system: NCI/ADR-RES
[12] = test system: OVCAR-4
[13] = test system: OVCAR-8
[14] = test system: RXF 393
[15] = test system: SF-539
[16] = test system: SK-MEL-2
[17] = test system: SN12C
[18] = test system: SR
[19] = test system: SK-OV-3

Structure (SMILES) | GI50 [1] | GI50 [2] | GI50 [3] | GI50 [4] | GI50 [5] | GI50 [6] | GI50 [7] | GI50 [8] | GI50 [9] | GI50 [10] | GI50 [11] | GI50 [12] | GI50 [13] | GI50 [14] | GI50 [15] | GI50 [16] | GI50 [17] | GI50 [18] | GI50 [19]
COC(=O)CN1CCN(c2cccc3c2CCCC3)CC1 | 36.2 µM (inactive) | 29.2 µM (inactive) | 29.6 µM (inactive) | 32.4 µM (inactive) | 90.2 µM (inactive) | 37 µM (inactive) | 40.5 µM (inactive) | > 100 µM (inactive) | 24.5 µM (inactive) | 46.8 µM (inactive) | 24.5 µM (inactive) | 52.8 µM (inactive) | > 100 µM (inactive) | > 100 µM (inactive) | > 100 µM (inactive) | > 100 µM (inactive) | 56 µM (inactive) | 35.5 µM (inactive) | –
CCOC(=O)c1c(SC(=O)c2ccc(Cl)cc2)n(-c2ccccc2)c(=S)n(-c2ccccc2)c1=O | > 100 µM (inactive) | > 100 µM (inactive) | > 100 µM (inactive) | > 100 µM (inactive) | > 100 µM (inactive) | > 100 µM (inactive) | > 100 µM (inactive) | > 100 µM (inactive) | > 100 µM (inactive) | > 100 µM (inactive) | > 100 µM (inactive) | > 100 µM (inactive) | > 100 µM (inactive) | > 100 µM (inactive) | > 100 µM (inactive) | – | > 100 µM (inactive) | > 100 µM (inactive) | > 100 µM (inactive)
C/C=C/C1(C)/C(=N\O)C(C)(CCC)C(=O)N1O (stereo unspecified) | > 100 µM (inactive) | > 100 µM (inactive) | > 100 µM (inactive) | > 100 µM (inactive) | > 100 µM (inactive) | – | – | – | > 100 µM (inactive) | > 100 µM (inactive) | – | > 100 µM (inactive) | > 100 µM (inactive) | > 100 µM (inactive) | > 100 µM (inactive) | > 100 µM (inactive) | > 100 µM (inactive) | > 100 µM (inactive) | > 100 µM (inactive)
N#C/C(=C\c1ccccc1)C(NO)Nc1ccccc1 (stereo unspecified) | > 100 µM (inactive) | 45.3 µM (inactive) | > 100 µM (inactive) | 40.7 µM (inactive) | 44.7 µM (inactive) | – | – | – | > 100 µM (inactive) | > 100 µM (inactive) | – | 84.3 µM (inactive) | 66.1 µM (inactive) | 41.5 µM (inactive) | 70.3 µM (inactive) | > 100 µM (inactive) | > 100 µM (inactive) | 20.1 µM (inactive) | > 100 µM (inactive)
CCOP(=O)(OCC)OC1C=CC2CCC1C2 (stereo unspecified) | 86.3 µM (inactive) | > 100 µM (inactive) | > 100 µM (inactive) | > 100 µM (inactive) | > 100 µM (inactive) | – | – | – | > 100 µM (inactive) | > 100 µM (inactive) | – | > 100 µM (inactive) | > 100 µM (inactive) | > 100 µM (inactive) | > 100 µM (inactive) | > 100 µM (inactive) | > 100 µM (inactive) | 26.6 µM (inactive) | > 100 µM (inactive)
NC(=O)N/N=C1/CCCC/C1=C\c1ccccc1 | > 100 µM (inactive) | > 100 µM (inactive) | > 100 µM (inactive) | > 100 µM (inactive) | > 100 µM (inactive) | – | – | – | > 100 µM (inactive) | > 100 µM (inactive) | – | > 100 µM (inactive) | > 100 µM (inactive) | > 100 µM (inactive) | > 100 µM (inactive) | > 100 µM (inactive) | > 100 µM (inactive) | > 100 µM (inactive) | > 100 µM (inactive)
CN1C(=O)NC(=O)/C(=C\Nc2ncccn2)C1=O | > 100 µM (inactive) | > 100 µM (inactive) | – | > 100 µM (inactive) | – | > 100 µM (inactive) | > 100 µM (inactive) | > 100 µM (inactive) | > 100 µM (inactive) | > 100 µM (inactive) | > 100 µM (inactive) | > 100 µM (inactive) | > 100 µM (inactive) | – | > 100 µM (inactive) | > 100 µM (inactive) | > 100 µM (inactive) | – | > 100 µM (inactive)
COc1cc2c(cc1OC)C(Cc1c3ccccc3cc3ccccc13)N(C)CC2 (stereo unspecified) | – | 11.2 µM (inactive) | – | 14.9 µM (inactive) | 12.5 µM (inactive) | 13.7 µM (inactive) | – | – | – | 20 µM (inactive) | 24.7 µM (inactive) | 30.7 µM (inactive) | 26.5 µM (inactive) | 10.5 µM (inactive) | 19.5 µM (inactive) | 17.6 µM (inactive) | 42 µM (inactive) | – | 22.4 µM (inactive)
NC1=C(N2CCOCC2)C(=O)NC2=N/C(=C\c3ccccc3O)C(=O)N21 | > 100 µM (inactive) | > 100 µM (inactive) | 95.7 µM (inactive) | > 100 µM (inactive) | 52.2 µM (inactive) | > 100 µM (inactive) | > 100 µM (inactive) | > 100 µM (inactive) | 84.3 µM (inactive) | 89.3 µM (inactive) | > 100 µM (inactive) | 13.5 µM (inactive) | > 100 µM (inactive) | > 100 µM (inactive) | > 100 µM (inactive) | – | > 100 µM (inactive) | 35.6 µM (inactive) | > 100 µM (inactive)
COc1ccc(C2CCC(Cl)(OC)CC2C=O)cc1 (stereo unspecified) | 45 µM (inactive) | > 100 µM (inactive) | > 100 µM (inactive) | 52 µM (inactive) | > 100 µM (inactive) | – | – | – | 44.9 µM (inactive) | > 100 µM (inactive) | – | > 100 µM (inactive) | 85.1 µM (inactive) | 0.128 µM (active) | 56.4 µM (inactive) | 21.9 µM (inactive) | > 100 µM (inactive) | 41.1 µM (inactive) | > 100 µM (inactive)
COc1ccc(OC)c2c1C1CCC(=O)N1CN2C(C)=O (stereo unspecified) | > 100 µM (inactive) | > 100 µM (inactive) | > 100 µM (inactive) | > 100 µM (inactive) | > 100 µM (inactive) | > 100 µM (inactive) | > 100 µM (inactive) | > 100 µM (inactive) | > 100 µM (inactive) | > 100 µM (inactive) | > 100 µM (inactive) | > 100 µM (inactive) | > 100 µM (inactive) | > 100 µM (inactive) | > 100 µM (inactive) | > 100 µM (inactive) | > 100 µM (inactive) | – | > 100 µM (inactive)
COC(=O)C(CCC1(C)OCCO1)C(C)=O (stereo unspecified) | > 100 µM (inactive) | > 100 µM (inactive) | > 100 µM (inactive) | > 100 µM (inactive) | > 100 µM (inactive) | – | – | – | > 100 µM (inactive) | > 100 µM (inactive) | – | > 100 µM (inactive) | > 100 µM (inactive) | > 100 µM (inactive) | > 100 µM (inactive) | > 100 µM (inactive) | > 100 µM (inactive) | 84.3 µM (inactive) | > 100 µM (inactive)
[O-][S+](Nc1ccccc1)c1ccccc1Oc1ccccc1 (stereo unspecified) | 24.7 µM (inactive) | > 100 µM (inactive) | 24.3 µM (inactive) | 34.1 µM (inactive) | 48.6 µM (inactive) | 60 µM (inactive) | 40.8 µM (inactive) | 57.1 µM (inactive) | 30.5 µM (inactive) | 35.3 µM (inactive) | 27.5 µM (inactive) | – | 26.9 µM (inactive) | 48.2 µM (inactive) | 14.6 µM (inactive) | – | 86.7 µM (inactive) | 7.41 µM (inactive) | –
